Results from US7547803B2, “Process for producing a high purity aromatic polycarboxylic acid” (Mitsubishi Gas Chemical Company, Inc., priority 2003, dated 2009).

Assay: solubility in water at 280° C.
Assay type: physicochemical

## O=C(O)c1ccc2cc(C(=O)O)ccc2c1 [2,6-naphthalenedicarboxylic acid]
  solubility of 2,6-naphthalenedicarboxylic acid in water: about 6 g in 100 g of water
